≈ marks a conversion by molar mass, not a printed value.
Legend:
[1] = tested on: genomic DNA of S. aureus (CMCC26003); experiment: Peptide and DNA binding assay (gel retardation); set-up: species or system Staphylococcus aureus; details: 0.5–8 × MIC (1–16 μg/ml), 37°C, 30 min, approx. 400 ng DNA
Method: (§1) The gel retardation experiment was conducted according to the method described by [Kim et al. (2018)] for exploring the influence of AMPs on the bacterial genome. The bacterial genomic DNAs were extracted by using a Vazyme FastPure® Bacteria DNA Isolation Mini Kit (Nanjing Vazyme Biotech Co., Ltd., Nanjing, China). […] DNA treated with Penetratin (reported as cell-penetrating peptide) ([de Mello et al., 2019]) and DNA untreated with AMP were served as positive and negative control, respectively. The extent of DNA migration was measured by agarose gel electrophoresis using a gel imaging system (Beijing Sage Creation Science, Beijing, China).

[2] = tested on: genomic DNA of E. coli (CMCC44103); experiment: Peptide and DNA binding assay (gel retardation); set-up: species or system Escherichia coli; details: 0.5–8 × MIC (1–16 μg/ml), 37°C, 30 min, approx. 400 ng DNA
Method: as §1

[3] = tested on: genomic DNA of E. coli (SYPB-3820); experiment: Peptide and DNA binding assay (gel retardation); set-up: species or system Escherichia coli; details: 0.5–8 × MIC (1–16 μg/ml), 37°C, 30 min, approx. 400 ng DNA
Method: as §1

[4] = tested on: Escherichia coli (CMCC44103); experiment: MIC, broth microdilution; details: CMCC44103, read-out: MIC, 5. E. coli (CMCC44103)
[5] = tested on: mouse skin wound infected with S. aureus (CMCC26003); experiment: Mouse full-thickness skin wound infection and healing; assay type: in vivo, BALB/c mice
Method: (§2) Briefly, adult female BALB/c mice (18–22 g) were obtained from the Laboratory Animal Center of Shenyang Pharmaceutical University and performed in compliance with the guidelines of the Institutional Animal Care and Use Committee of Shenyang Pharmaceutical University. Each mouse was operated on an 8-mm in diameter round-shape wound under surgery conditions with an intraperitoneal injection of ketamine (90 mg/kg) and xylazine (10 mg/kg). The mice were randomly divided into 10 groups, including one normal group, three model groups, three treatment groups, and three positive groups (n = 10 in each group), then the wounds were infected with 40 μl (1 × 10^8 CFU/mL) of E. coli (CMCC44103) or drug-resistant E. coli (SYPB-3820) or S. aureus (CMCC26003), respectively, except for the normal group. Forty-eight hours later, the wounds of three model groups were treated with a sterile 0.85% saline solution. […] All the wounds were treated twice 1 day and observed every 24 h for 14 days. On days 1, 3, 5, 7, and 10, 100 mg of treated skin tissue was removed and homogenized in 0.9 ml of sterile 0.85% saline solution, then the samples were diluted and plated onto Luria-Bertani (LB) medium. After incubation at 37°C for 20 h, the CFUs were counted to represent the bacterial number in the wounds.

[6] = tested on: mouse skin wound infected with drug-resistant E. coli (SYPB-3820); experiment: as above; assay type: in vivo, BALB/c mice
Method: as §2

[7] = tested on: mouse skin wound infected with E. coli (CMCC44103); experiment: as above; assay type: in vivo, BALB/c mice
Method: as §2

[8] = tested on: Acinetobacter baumannii (ACCC11038); experiment: MIC, broth microdilution; details: read-out: MIC, 8. A. baumannii (ACCC11038)
[9] = tested on: Shigella dysenteriae (CMCC(B)51105); experiment: MIC, broth microdilution; assay type: cell-based; details: read-out: MIC, 9. S. dysenteriae (CMCC(B)51105)
[10] = tested on: Escherichia coli (SYPB-3820) (multiple-resistant strain); experiment: MIC, broth microdilution; details: read-out: MIC, 7. E. coli (SYPB-3820) (multiple-resistant strain)
[11] = tested on: Klebsiella pneumoniae (CMCC46117); experiment: MIC, broth microdilution; details: CMCC46117, read-out: MIC, 6. K. pneumoniae (CMCC46117)
[12] = tested on: Staphylococcus aureus (CMCC26003); experiment: MIC, broth microdilution; details: CMCC26003, read-out: MIC, 1. S. aureus (CMCC26003)
[13] = tested on: multiple-resistant Staphylococcus aureus (MRSA186); experiment: MIC, broth microdilution; details: read-out: MIC, 2. multiple-resistant S. aureus (MRSA186)

**Q.** Penetratin was tested. Which “Binding to genomic DNA (gel retardation)” value [1] did it give?
**A.** bound with the bacterial genomic DNA and blocked the migration

**Q.** And the “Binding to genomic DNA (gel retardation)” value [2]?
**A.** bound with the bacterial genomic DNA and blocked the migration

**Q.** What about the “Binding to genomic DNA (gel retardation)” value [3] of the same compound?
**A.** bound with the bacterial genomic DNA and blocked the migration

**Q.** How did the MIC [4] turn out when `C[C@H]1COc2c(N3CCN(C)CC3)c(F)cc3c(=O)c(C(=O)O)cn1c23` [Levofloxacin] was run?
**A.** 0.03 µg/mL (≈ 0.083 µM)

**Q.** What about the “Skin wound bacterial burden” value ([5]; day 10, S. aureus (CMCC26003) infected wound, topical 100 μl at 8 × MIC twice a day, mean ± SD) of the same compound?
**A.** (5.37 ± 2.89) × 10^3 CFU/g

**Q.** And the “Reduction of bacterial burden” value ([5]; day 10 vs initial burden, S. aureus (CMCC26003))?
**A.** seven

**Q.** And the “Wound healing (observation)” value ([5]; day 14, S. aureus (CMCC26003) infected wound)?
**A.** basically completely healed

**Q.** What about the “Skin wound bacterial burden” value ([6]; 10 days later, E. coli (SYPB-3820) infected wound, topical 100 μl at 8 × MIC twice a day, mean ± SD) of the same compound?
**A.** (2.29 ± 3.78) × 10^4 CFU/g

**Q.** What about the “Reduction of bacterial counts” value ([6]; day 10 vs initial burden, E. coli (SYPB-3820)) of the same compound?
**A.** five

**Q.** What about the “Wound healing (observation)” value ([6]; day 14, E. coli (SYPB-3820) infected wound) of the same compound?
**A.** basically completely healed

**Q.** And the “Skin wound bacterial burden” value ([7]; day 10, E. coli (CMCC44103) infected wound, topical 100 μl at 8 × MIC twice a day, mean ± SD)?
**A.** (3.91 ± 2.87) × 10^3 CFU/g

**Q.** What about the “Decrease of bacterial load” value ([7]; day 10 vs initial burden, E. coli (CMCC44103)) of the same compound?
**A.** six

**Q.** What about the “Wound healing (observation)” value ([7]; day 14, E. coli (CMCC44103) infected wound) of the same compound?
**A.** basically completely healed

**Q.** And the MIC [8]?
**A.** 0.06 µg/mL (≈ 0.166 µM)

**Q.** What about the MIC [9] of the same compound?
**A.** 0.06 µg/mL (≈ 0.166 µM)

**Q.** What about the MIC [10] of the same compound?
**A.** 8 µg/mL (≈ 22.1 µM)

**Q.** And the MIC [11]?
**A.** 0.03 µg/mL (≈ 0.083 µM)

**Q.** What about the MIC [12] of the same compound?
**A.** 0.12 µg/mL (≈ 0.332 µM)

**Q.** `CN[C@H](CC(C)C)C(=O)N[C@H]1C(=O)N[C@@H](CC(N)=O)C(=O)N[C@H]2C(=O)N[C@H]3C(=O)N[C@H](C(=O)N[C@H](C(=O)O)c4cc(O)cc(O)c4-c4cc3ccc4O)[C@H](O)c3ccc(c(Cl)c3)Oc3cc2cc(c3O[C@@H]2O[C@H](CO)[C@@H](O)[C@H](O)[C@H]2O[C@H]2C[C@](C)(N)[C@H](O)[C@H](C)O2)Oc2ccc(cc2Cl)[C@H]1O` [Vancomycin] was tested. Which MIC [13] did it give?
**A.** 1 µg/mL (≈ 0.69 µM)
